SMILES strings stand for the structures. Where two headings read alike, the source gives them in different places. A value given as a limit tells only on which side of the number the result lay.

In one assay the target is T1, MALT1 (Homo sapiens, UniProt Q9UDY8).
T1 construct: Avi-tagged FL MALT-1 (Pharmaron, stored at −70° C.); Avi tag
T1 sequence (Q9UDY8 1-824): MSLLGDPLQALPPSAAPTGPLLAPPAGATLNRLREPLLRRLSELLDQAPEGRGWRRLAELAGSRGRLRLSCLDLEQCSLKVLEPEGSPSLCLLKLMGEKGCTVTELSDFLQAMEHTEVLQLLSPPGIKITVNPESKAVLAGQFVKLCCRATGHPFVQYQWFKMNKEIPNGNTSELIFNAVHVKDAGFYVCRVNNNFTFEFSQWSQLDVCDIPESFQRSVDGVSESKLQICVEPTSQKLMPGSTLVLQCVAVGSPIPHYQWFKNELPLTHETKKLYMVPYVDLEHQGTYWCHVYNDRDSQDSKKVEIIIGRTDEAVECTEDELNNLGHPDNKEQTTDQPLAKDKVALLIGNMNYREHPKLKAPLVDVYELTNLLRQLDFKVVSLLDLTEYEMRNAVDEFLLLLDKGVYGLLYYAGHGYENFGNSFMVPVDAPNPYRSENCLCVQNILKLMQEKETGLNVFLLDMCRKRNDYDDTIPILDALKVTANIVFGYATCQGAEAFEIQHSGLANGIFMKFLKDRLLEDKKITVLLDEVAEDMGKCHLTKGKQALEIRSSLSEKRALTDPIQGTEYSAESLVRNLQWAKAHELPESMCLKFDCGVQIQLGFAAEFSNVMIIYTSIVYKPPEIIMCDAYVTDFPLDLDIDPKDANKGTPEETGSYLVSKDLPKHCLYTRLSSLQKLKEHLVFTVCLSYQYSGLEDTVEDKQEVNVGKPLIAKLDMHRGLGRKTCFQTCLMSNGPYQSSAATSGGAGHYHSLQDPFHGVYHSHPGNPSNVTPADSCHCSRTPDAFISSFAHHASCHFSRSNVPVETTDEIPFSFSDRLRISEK
Put plainly: MALT-1 Fluorogenic Peptide Cleavage Assay (MALT1 inhibition assay). The assay is classed as biochemical. Particulars: Avi-tagged FL MALT-1, Ac-LRSR-AMC peptide substrate, 30 min pre-incubation, 90 min reaction. The method, boiled down:
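IC50 from sigmoidal fits of % inhibition, with fluorescence (ex 342, em 441 nm) from AMC released from the quenched LRSR peptide after 90 min at room temperature. Full-length Avi-tagged MALT1 saw compound for 30 min first; final DMSO 2%.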

In the next assay the test system is NF-kB. Put plainly: NF-kB reporter assay in Jurkat cells stimulated with aCD3/aCD28/PMA. The assay is classed as cell-based. Particulars: read-out: NF-kB Reporter Assay IC50. The method, boiled down: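 Stimulation used final aCD3 5 μg/mL, aCD28 5 μg/mL and PMA 0.03 μg/mL for 4 hr at 37° C, after 1 hr compound pretreatment of 25,000 serum-starved Jurkat cells per well. One-Glo luminescence gave IC50 values.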
On the technique in general: A reporter such as luciferase makes a cellular process visible.

Where [1] appears, read: Homo sapiens, Jurkat, Jurkat cells, 1 hr compound incubation, aCD3/aCD28/PMA stimulation 4 hr, One-Glo readout.
The mark [2] stands for this setting: Jurkat cells, 1 hr compound incubation, aCD3/aCD28/PMA stimulation 4 hr, One-Glo readout.

Regarding `Cn1ncc2cccc(NS(=O)(=O)c3ccc(-c4cnn5c4CCC5)nc3)c21` [Example I-269, 6-(5,6-dihydro-4H-pyrrolo[1,2-b]pyrazol-3-yl)-N-(1-methyl-1H-indazol-7-yl)pyridine-3-sulfonamide], the IC50 (usually the point on the concentration scale where inhibition reaches its midpoint) at MALT1 was greater than 2500 nM; with NF-kB (setting [1]) it was less than 400 nM.
The matching figures for `Cn1ncc2cccc(NS(=O)(=O)c3ccc(-c4cnn5c4COCC5)nc3)c21` [Example I-270, 6-(6,7-dihydro-4H-pyrazolo[5,1-c][1,4]oxazin-3-yl)-N-(1-methyl-1H-indazol-7-yl)pyridine-3-sulfonamide]: greater than 2500 nM and less than 400 nM.
On to `Cc1ncc(-c2ccc(S(=O)(=O)Nc3cccc4cnn(C)c34)cn2)n1C(F)(F)F` [Example I-271, 6-(2-methyl-1-(trifluoromethyl)-1H-imidazol-5-yl)-N-(1-methyl-1H-indazol-7-yl)pyridine-3-sulfonamide], for which the IC50 against MALT1 is greater than 2500 nM; in the assay on NF-kB (Homo sapiens, Jurkat), less than 400 nM.
In the case of `Cn1ncc2cccc(NS(=O)(=O)c3ccc(-c4cnn5c4CCCC5)nc3)c21` [Example I-272, N-(1-methyl-1H-indazol-7-yl)-6-(4,5,6,7-tetrahydropyrazolo[1,5-a]pyridin-3-yl)pyridine-3-sulfonamide], the IC50 is greater than 2500 nM against MALT1 and less than 400 nM in the assay on NF-kB (setting [1]).
For `COc1ccc2c(F)nn(C)c2c1NS(=O)(=O)c1ccc(-n2cc(C(F)(F)F)cn2)nc1` [Example I-273, N-(3-fluoro-6-methoxy-1-methyl-1H-indazol-7-yl)-6-(4-(trifluoromethyl)-1H-pyrazol-1-yl)pyridine-3-sulfonamide], the IC50 was less than 400 nM at MALT1 and 400 to 1000 nM in the assay with NF-kB (setting [1]).
The matching figures for `Cc1c(-c2ccc(S(=O)(=O)Nc3cccc4cnn(C)c34)cn2)cnn1C1COC1` [Example I-274]: greater than 2500 nM and less than 400 nM.
The matching figures for `Cc1nn(C2COC2)cc1-c1ccc(S(=O)(=O)Nc2cccc3cnn(C)c23)cn1` [Example I-275]: greater than 2500 nM and 400 to 1000 nM.
With `Cn1ncc2cccc(NS(=O)(=O)c3ccc(-n4cc(C(C)(C)C)cn4)nc3)c21` [Example I-276, 6-(4-tert-butylpyrazol-1-yl)-N-(1-methylindazol-7-yl)pyridine-3-sulfonamide], the IC50 on MALT1 was greater than 2500 nM; in the assay on NF-kB (setting [1]), less than 400 nM.
Consider `Cn1ncc2cccc(NS(=O)(=O)c3ccc(-n4cc(C(C)(C)O)cn4)nc3)c21` [Example I-277], for which the IC50 against MALT1 was greater than 2500 nM; in the assay with NF-kB (setting [1]), 400 to 1000 nM.
Turning to `COc1ccc2cnn(C)c2c1NS(=O)(=O)c1ccc(-n2cc(C(C)(C)O)cn2)nc1` [Example I-278, 6-(4-(2-hydroxypropan-2-yl)-1H-pyrazol-1-yl)-N-(6-methoxy-1-methyl-1H-indazol-7-yl)pyridine-3-sulfonamide], the IC50 on MALT1 and with NF-kB (setting [1]) was greater than 2500 nM each time.
As to `Cn1ncc2cccc(NS(=O)(=O)c3ccc(-n4cc(CO)cn4)nc3)c21` [Example I-279], the 50% inhibitory concentration (IC50) was greater than 2500 nM against MALT1 and less than 400 nM in the assay with NF-kB (setting [1]).
As to `COc1ccc2cnn(C)c2c1NS(=O)(=O)c1ccc(-n2cc(C(C)O)cn2)nc1` (stereo not shown) [Example I-280, 6-(4-(1-Hydroxyethyl)-1H-Pyrazol-1-yl)-N-(6-Methoxy-1-Methyl-1H-Indazol-7-yl)Pyridine-3-Sulfonamide], the IC50 at MALT1 is 400 to 1000 nM; in the assay on NF-kB (setting [1]) it was less than 400 nM.
With `COc1ccc2cnn(C)c2c1NS(=O)(=O)c1ccc(-n2cc(C(C)O)cn2)nc1` (stereo not shown) [Example I-281, 6-(4-(1-Hydroxyethyl)-1H-Pyrazol-1-yl)-N-(6-Methoxy-1-Methyl-1H-Indazol-7-yl)Pyridine-3-Sulfonamide], the IC50 on MALT1 was 1000 to 2500 nM; in the assay with NF-kB (setting [2]) it was less than 400 nM.
`CC(O)c1cnn(-c2ccc(S(=O)(=O)Nc3cccc4cnn(C)c34)cn2)c1` (stereo not shown) [Example I-282]: the IC50 is greater than 2500 nM on MALT1 and 400 to 1000 nM with NF-kB (setting [1]).
As for `CC(O)c1cnn(-c2ccc(S(=O)(=O)Nc3cccc4cnn(C)c34)cn2)c1` (stereo not shown) [Example I-283], the figures for the IC50 against MALT1 and in the assay with NF-kB (setting [2]) were greater than 2500 nM and less than 400 nM, respectively.
For the compound `COc1ccc2cnn(C)c2c1NS(=O)(=O)c1ccc(-n2cc(CO)cn2)nc1` [Example I-284, 6-[4-(hydroxymethyl)pyrazol-1-yl]-N-(6-methoxy-1-methylindazol-7-yl)pyridine-3-sulfonamide], the IC50 is 400 to 1000 nM at MALT1 and less than 400 nM in the assay with NF-kB (setting [1]).
The matching figures for `COc1ccc2cnn(C)c2c1NS(=O)(=O)c1ccc(-n2cc(C(C)(C)C)cn2)nc1` [Example I-285, 6-(4-tert-butylpyrazol-1-yl)-N-(6-methoxy-1-methylindazol-7-yl)pyridine-3-sulfonamide]: 400 to 1000 nM and less than 400 nM.
For `COc1ccc2cnn(C)c2c1NS(=O)(=O)c1ccc(-n2cnc(C(F)(F)F)c2)nc1` [Example I-286, N-(6-methoxy-1-methylindazol-7-yl)-6-[4-(trifluoromethyl)imidazol-1-yl]pyridine-3-sulfonamide], the IC50 at MALT1 and with NF-kB (setting [1]) was less than 400 nM each time.
As to `COc1ccc2cnn(C)c2c1NS(=O)(=O)c1ccc(-c2cnn3c2CCC3)nc1` [Example I-287], the IC50 is 1000 to 2500 nM against MALT1 and less than 400 nM in the assay with NF-kB (setting [1]).
The matching figures for `Cc1n[nH]c2cccc(NS(=O)(=O)c3ccc(-c4cnn5c4CCC5)nc3)c12` [Example I-288]: greater than 2500 nM and less than 400 nM.
The matching figures for `COc1ncc2cnn(C)c2c1NS(=O)(=O)c1ccc(-c2cnn3c2CCC3)nc1` [Example I-289]: greater than 2500 nM and 400 to 1000 nM.
`[2H]C([2H])([2H])n1ncc2cnc(OC)c(NS(=O)(=O)c3ccc(-n4cc(C(F)(F)F)cn4)nc3)c21` [Example I-290, N-(6-methoxy-1-(methyl-d3)-1H-pyrazolo[4,3-c]pyridin-7-yl)-6-(4-(trifluoromethyl)-1H-pyrazol-1-yl)pyridine-3-sulfonamide]: the concentration for half-maximal inhibition (IC50) at MALT1 and in the assay with NF-kB (setting [1]) was less than 400 nM in each case.
For `[2H]C([2H])([2H])n1ncc2cnc(OC)c(N(C)S(=O)(=O)c3ccc(-n4cc(C(F)(F)F)cn4)nc3)c21` [Example I-291, N-(6-methoxy-1-(methyl-d3)-1H-pyrazolo[4,3-c]pyridin-7-yl)-N-methyl-6-(4-(trifluoromethyl)-1H-pyrazol-1-yl)pyridine-3-sulfonamide], the half-inhibitory concentration (IC50) against MALT1 and in the assay with NF-kB (setting [1]) was less than 400 nM throughout.
With `O=S(=O)(c1ccc(-n2cc(C(F)(F)F)cn2)nc1)N1CCCn2ncc3cccc1c32` [Example I-292, 1-((6-(4-(trifluoromethyl)-1H-pyrazol-1-yl)pyridin-3-yl)sulfonyl)-1,2,3,4-tetrahydro-[1,4]diazepino[3,2,1-hi]indazole], the half-inhibitory concentration (IC50) against MALT1 is greater than 2500 nM; with NF-kB (setting [1]), 400 to 1000 nM.
The corresponding values for `O=S(=O)(c1ccc(-n2cc(C(F)(F)F)cn2)nc1)N1CCCCn2ncc3cccc1c32` [Example I-293, 1-((6-(4-(trifluoromethyl)-1H-pyrazol-1-yl)pyridin-3-yl)sulfonyl)-2,3,4,5-tetrahydro-1H-[1,4]diazocino[3,2,1-hi]indazole] are greater than 2500 nM and 400 to 1000 nM.
For the compound `O=S(=O)(c1ccc(-n2cc(C(F)(F)F)cn2)nc1)N1CCn2ncc3cccc1c32` [Example I-294, 1-((6-(4-(trifluoromethyl)-1H-pyrazol-1-yl)pyridin-3-yl)sulfonyl)-2,3-dihydro-1H-pyrazolo[1,5,4-de]quinoxaline], the 50% inhibitory concentration (IC50) against MALT1 was greater than 2500 nM; with NF-kB (setting [1]) it was 1000 to 2500 nM.
The corresponding values for `COc1ccc2[nH]nc(C)c2c1NS(=O)(=O)c1ccc(-c2cnn3c2CCC3)nc1` [Example I-295] are greater than 2500 nM and less than 400 nM.
The matching figures for `C=Cn1ncc2cccc(NS(=O)(=O)c3ccc(-n4cc(C(F)(F)F)cn4)nc3)c21` [Example I-296, 6-(4-(trifluoromethyl)-1H-pyrazol-1-yl)-N-(1-vinyl-1H-indazol-7-yl)pyridine-3-sulfonamide]: 1000 to 2500 nM and less than 400 nM.
The corresponding values for `C=Cn1cc2cccc(NS(=O)(=O)c3ccc(-n4cc(C(F)(F)F)cn4)nc3)c2n1` [Example I-297] are greater than 2500 nM and greater than 2500 nM.

These data come from patent US20240150365A1 (Hotspot Therapeutics, Inc., priority 2022, published 2024).
